Experimental data as given in patent US10329295B2, “Pyrrolotriazine inhibitors of IRAK4 activity” (MERCK SHARP & DOHME CORP., priority 2015, dated 2019).
pIC50: −log10 of the molar value. Where a name gives a salt, the structure may show the parent alone.

Target: GST tagged IRAK4 (Homo sapiens (Human), UniProt Q9NWZ3)
Experiment: IRAK4 Kinase Assay (IMAP fluorescence polarization)
Assay type: biochemical
Details: 0.5 nM GST tagged IRAK4, 100 μM ATP, 30 minutes at 25° C.
Protocol: The kinase activity of IRAK4 is determined by its ability to catalyze the phosphorylation of a fluorescent polypeptide substrate. The extent of phosphorylation is measured using the IMAP technology (Molecular Devices) where the phosphorylated fluorescent substrate binds to the large M(III)-based nanoparticles which reduces the rotational speed of the substrate and thus increases its fluorescent polarization (FP).
20 μL reaction mixture contains 10 mM TriHCl, pH 7.2, 0.5 nM GST tagged IRAK4 (SignalChem), 100 nM fluorescent peptide substrate (RP7030, Molecular Devices), 100 μM ATP, 1 mM DDT, 1 mM MgCl2, and 0.01% Tween 20. The reaction is initiated by the addition of ATP. After incubation for 30 minutes at 25° C., 60 μL of Progressive IMAP Reagent (Molecular Devices) is added to stop the reaction. Change in RP7030's FP is determined by a FP reader (Analyst HT, LJL BioSystems).

Sequence of GST tagged IRAK4 (Q9NWZ3 whole entry): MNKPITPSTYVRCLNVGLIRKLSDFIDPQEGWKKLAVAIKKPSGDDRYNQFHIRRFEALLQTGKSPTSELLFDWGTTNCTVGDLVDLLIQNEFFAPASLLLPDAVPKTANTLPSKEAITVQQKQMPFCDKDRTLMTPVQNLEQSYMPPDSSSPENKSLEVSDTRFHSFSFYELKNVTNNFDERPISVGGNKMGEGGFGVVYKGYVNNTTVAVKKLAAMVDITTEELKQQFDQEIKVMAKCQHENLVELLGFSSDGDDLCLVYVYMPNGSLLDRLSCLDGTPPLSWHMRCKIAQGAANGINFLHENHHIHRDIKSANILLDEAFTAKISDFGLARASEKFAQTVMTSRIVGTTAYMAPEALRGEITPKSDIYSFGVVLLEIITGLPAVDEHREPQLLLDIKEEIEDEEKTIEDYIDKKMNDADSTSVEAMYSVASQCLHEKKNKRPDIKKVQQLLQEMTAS

| SMILES | pIC50 |
| --- | --- |
| Cn1cc(NC(=O)c2ccc3cnc(N[C@@H]4CCCC[C@@H]4N)nn23)c(C(F)F)n1 [Example 1, 2-{[(1R,2S)-2-Aminocyclohexyl]amino}-N-[3-(difluoromethyl)-1-methyl-1H-pyrazol-4-yl]pyrrolo[2,1-f][1,2,4]triazine-7-carboxamide] | 9.30 |
| O=C(Nc1ccccc1C(F)F)c1ccc2cnc(N3C[C@@H]4CC[C@H]3CN4)nn12 (single isomer, unassigned) [Example 61, 2-[(1S,4S)- or (1R,4R)-2,5-diazabicyclo[2.2.2]oct-2-yl]-N-[2-(difluoromethyl)phenyl]-pyrrolo[2,1-f][1,2,4]triazine-7-carboxamide trifluoroacetate] | 5.00 |
| N#Cc1ccccc1NC(=O)c1ccc2cnc(N[C@@H]3CCCCNC3)nn12 (single isomer, unassigned) [Example 73, 2-[(3S)- or (3R)-azepan-3-ylamino]-N-(2-cyanophenyl)pyrrolo[2,1-f][1,2,4]triazine-7-carboxamide trifluoroacetate] | 7.57 |
| O=C(Nc1cscc1Cl)c1ccc2cnc(N3CCCNCC3)nn12 [Example 105, N-(4-chlorothiophen-3-yl)-2-(1,4-diazepan-1-yl)pyrrolo[2,1-f][1,2,4]triazine-7-carboxamide trifluoroacetate] | 5.32 |
| N[C@@H]1[C@H](Nc2ncc3ccc(C(=O)Nc4ccccc4Br)n3n2)CCCC1(F)F [Example 106, 2-{[(1R,2R)-2-amino-3,3-difluorocyclohexyl]amino}-N-(2-bromophenyl)pyrrolo[2,1-f][1,2,4]triazine-7-carboxamide trifluoroacetate] | 5.24 |
| O=C(Nc1ccccc1Cl)c1ccc2cnc(N3C[C@@H]4CC[C@H]3CN4)nn12 (single isomer, unassigned) [Example 65, N-(2-chlorophenyl)-2-[(1S,4S)- or (1R,4R)-2,5-diazabicyclo[2.2.2]oct-2-yl]pyrrolo[2,1-f][1,2,4]triazine-7-carboxamide trifluoroacetate] | 5.69 |
| N#Cc1sccc1NC(=O)c1ccc2cnc(N[C@@H]3CCCC(F)(F)[C@@H]3N)nn12 [Example 158, 2-{[(1R,2R)-2-amino-3,3-difluorocyclohexyl]amino}-N-(2-cyanothiophen-3-yl)pyrrolo[2,1-f][1,2,4]triazine-7-carboxamide formate] | 5.99 |
| Cn1cc(NC(=O)c2ccc3cnc(N4C[C@@H](N)C[C@H](F)C4)nn23)c(C(F)(F)F)n1 [Example 150, 2-[(3S,5S)-3-amino-5-fluoropiperidin-1-yl]-N-[1-methyl-3-(trifluoromethyl)-1H-pyrazol-4-yl]pyrrolo[2,1-f][1,2,4]triazine-7-carboxamide trifluoroacetate] | 8.00 |
| Cn1cc(NC(=O)c2ccc3cnc(N4C[C@@H]5CN[C@@H](C5)C4)nn23)c(C(F)F)n1 (single isomer, unassigned) [Example 103, 2-[(1S,5S)- or (1R,5R)-3,6-diazabicyclo[3.2.1]oct-3-yl]-N-[3-(difluoromethyl)-1-methyl-1H-pyrazol-4-yl]pyrrolo[2,1-f][1,2,4]triazine-7-carboxamide] | 8.00 |
| Cn1cc(NC(=O)c2ccc3cnc(N[C@@H]4CCCC[C@@H]4O)nn23)c(C(F)F)n1 [Example 17, N-[3-(difluoromethyl)-1-methyl-1H-pyrazol-4-yl]-2-{[(1R,2S)-2-hydroxycyclohexyl]amino}-pyrrolo[2,1-f][1,2,4]triazine-7-carboxamide trifluoroacetate] | 8.40 |
| COCCn1cc(NC(=O)c2ccc3cnc(N[C@@H]4CCCC[C@@H]4N)nn23)cn1 [Example 168, 2-{[(1R,2S)-2-aminocyclohexyl]amino}-N-[1-(2-methoxyethyl)-1H-pyrazol-4-yl]pyrrolo[2,1-f][1,2,4]triazine-7-carboxamide trifluoroacetate] | 6.52 |
| Cn1cc(NC(=O)c2ccc3cnc(N4C[C@@H]5CN[C@@H](C5)C4)nn23)c(C#N)n1 (single isomer, unassigned) [Example 113, N-(3-cyano-1-methyl-1H-pyrazol-4-yl)-2-[(1S,5S)- or (1R,5R)-3,6-diazabicyclo[3.2.1]oct-3-yl]pyrrolo[2,1-f][1,2,4]triazine-7-carboxamide] | 7.07 |
| N#Cc1sccc1NC(=O)c1ccc2cnc(N[C@@H]3CCCC[C@@H]3O)nn12 [Example 147, N-(2-cyanothiophen-3-yl)-2-{[(1R,2S)-2-hydroxycyclohexyl]amino}-pyrrolo[2,1-f][1,2,4]triazine-7-carboxamide] | 6.40 |
| N#Cc1ccccc1NC(=O)c1ccc2cnc(N[C@H]3CCCCNC3)nn12 (single isomer, unassigned) [Example 60, 2-[(3S)- or (3R)-azepan-3-ylamino]-N-(2-cyanophenyl)pyrrolo[2,1-f][1,2,4]triazine-7-carboxamide trifluoroacetate] | 8.10 |
| Cn1cc(NC(=O)c2ccc3cnc(N4C[C@@H]5CNC[C@H]4C5)nn23)c(C#N)n1 (single isomer, unassigned) [Example 135, N-(3-cyano-1-methyl-1H-pyrazol-4-yl)-2-[(1R,5S)- or (1S,5R)-3,6-diazabicyclo[3.2.1]oct-6-yl]pyrrolo[2,1-f][1,2,4]triazine-7-carboxamide] | 6.06 |
| O=C(Nc1ccsc1Cl)c1ccc2cnc(N3C[C@@H]4CC[C@H]3CN4)nn12 (single isomer, unassigned) [Example 53, N-(2-chlorothiophen-3-yl)-2-[(1S,4S)- or (1R,4R)-2,5-diazabicyclo[2.2.2]oct-2-yl]pyrrolo[2,1-f][1,2,4]triazine-7-carboxamide trifluoroacetate] | 5.79 |
| N#Cc1ccccc1NC(=O)c1ccc2cnc(N[C@@H]3CCCNC3)nn12 [Example 52, N-(2-cyanophenyl)-2-[(3R)-piperidin-3-ylamino]pyrrolo[2,1-f][1,2,4]triazine-7-carboxamide trifluoroacetate] | 7.59 |
| Cn1cc(NC(=O)c2ccc3cnc(N4C[C@H]5CC[C@@H]4CN5)nn23)c(Cl)n1 (single isomer, unassigned) [Example 45, N-(3-chloro-1-methyl-1H-pyrazol-4-yl)-2-[(1S,4S)- or (1R,4R)-2,5-diazabicyclo[2.2.2]oct-2-yl]pyrrolo[2,1-f][1,2,4]triazine-7-carboxamide trifluoroacetate] | 7.10 |
| Cn1cc(NC(=O)c2ccc3cnc(N[C@@H]4CNC[C@@H](F)C4)nn23)c(C(F)F)n1 [Example 164, N-[3-(difluoromethyl)-1-methyl-1H-pyrazol-4-yl]-2-{[(3S,5S)-5-fluoropiperidin-3-yl]amino}pyrrolo[2,1-f][1,2,4]triazine-7-carboxamide] | 9.30 |
| Cn1cc(NC(=O)c2ccc3cnc(N[C@H]4CC(F)(F)CC[C@H]4N)nn23)c(C(F)(F)F)n1 (single isomer, unassigned) [Example 127, 2-{[(1S,2R)- or (1R,2S)-2-amino-5,5-difluorocyclohexyl]amino}-N-[1-methyl-3-(trifluoromethyl)-1H-pyrazol-4-yl]pyrrolo[2,1-f][1,2,4]triazine-7-carboxamide trifluoroacetate] | 7.77 |
| N#Cc1cscc1NC(=O)c1ccc2cnc(N3CCCNCC3)nn12 [Example 12, N-(4-cyanothiophen-3-yl)-2-(1,4-diazepan-1-yl)pyrrolo[2,1-f][1,2,4]triazine-7-carboxamide trifluoroacetate] | 6.44 |
| Cn1cc(NC(=O)c2ccc3cnc(N4C5CCC4CNC5)nn23)c(C(F)(F)F)n1 [Example 96, 2-(3,8-diazabicyclo[3.2.1]oct-8-yl)-N-[1-methyl-3-(trifluoromethyl)-1H-pyrazol-4-yl]pyrrolo[2,1-f][1,2,4]triazine-7-carboxamide trifluoroacetate] | 8.30 |
| N#Cc1cscc1NC(=O)c1ccc2cnc(N[C@@H]3CCCC[C@@H]3O)nn12 [Example 142, N-(4-cyanothiophen-3-yl)-2-{[(1R,2S)-2-hydroxycyclohexyl]amino}-pyrrolo[2,1-f][1,2,4]triazine-7-carboxamide trifluoroacetate] | 5.80 |
| O=C(Nc1ccccc1Br)c1ccc2cnc(N3C[C@H]4CC[C@@H]3CN4)nn12 (single isomer, unassigned) [Example 77, N-(2-bromophenyl)-2-[(1S,4S)- or (1R,4R)-2,5-diazabicyclo[2.2.2]oct-2-yl]pyrrolo[2,1-f][1,2,4]triazine-7-carboxamide trifluoroacetate] | 5.71 |
| O=C(Nc1ccccc1C(F)(F)F)c1ccc2cnc(N3C[C@@H]4CC[C@H]3CN4)nn12 (single isomer, unassigned) [Example 78, 2-[(1S,4S)- or (1R,4R)-2,5-diazabicyclo[2.2.2]oct-2-yl]-N-[2-(trifluoromethyl)phenyl]-pyrrolo[2,1-f][1,2,4]triazine-7-carboxamide trifluoroacetate] | 5.84 |
| Cn1cc(NC(=O)c2ccc3cnc(N[C@@H]4CCC(F)(F)C[C@@H]4N)nn23)c(C(F)F)n1 (single isomer, unassigned) [Example 139, 2-{[(1S,2R)- or (1R,2S)-2-amino-4,4-difluorocyclohexyl]amino}-N-[3-(difluoromethyl)-1-methyl-1H-pyrazol-4-yl]pyrrolo[2,1-f][1,2,4]triazine-7-carboxamide] | 8.52 |
| Cn1cc(NC(=O)c2ccc3cnc(N[C@@H]4CCCC[C@@H]4N)nn23)c(Cl)n1 [Example 25, 2-{[(1R,2S)-2-aminocyclohexyl]amino}-N-(3-chloro-1-methyl-1H-pyrazol-4-yl)pyrrolo[2,1-f][1,2,4]triazine-7-carboxamide trifluoroacetate] | 9.00 |
